These results are taken from ChEMBL document CHEMBL3243973, “Synthesis and antitussive activity of aminotetra- (and -hexa-) hydrodibenzofurans” (J Med Chem, 1977).

Data set [1] relates to Cavia porcellus. The data set can be described thus: Antitussive activity in Dunkin-Hartley guinea pig assessed as inhibition of electrically-stimulated vagus nerve-induced cough at 100 mg/kg, po administered compound prior to electrical stimulation of vagus nerve measured at 20 to 40 mins relative to control. It counts as functional.
In data set [2] the test system is Cavia porcellus. The data set can be described thus: Antitussive activity in po dosed Dunkin-Hartley guinea pig assessed as inhibition of electrically-stimulated vagus nerve-induced cough administered compound prior to electrical stimulation of vagus nerve measured at 20 to 40 mins. The data set is classed as functional.
Data set [3] has as its system Cavia porcellus. The data set can be described thus: Toxicity in Dunkin-Hartley guinea pig assessed as effect on central nervous system at 100 mg/kg, po. It counts as organism-based. More on the design: dose 100 mg/kg, route oral. The settings on record: in vivo.
The subject of data set [4] is Cavia porcellus. The data set can be described thus: Toxicity in Dunkin-Hartley guinea pig assessed as effect on cardiovascular system at 100 mg/kg, po. More on the design: dose 100 mg/kg, route oral. The data set is classed as organism-based. The settings on record: in vivo.
Data set [5] deals with Cavia porcellus. The data set can be described thus: Toxicity in Dunkin-Hartley guinea pig assessed as gastrointestinal effect at 100 mg/kg, po. The settings on record: in vivo. More on the design: dose 100 mg/kg, route oral. The data set is classed as organism-based.

Structures are written as SMILES. A value given as a limit tells only on which side of the number the result lay.

The inhibition in vivo is the drop in the measured response relative to a control, in per cent. Usually ED50 stands for the dose at which the effect has come halfway, by size or by number of responders. `Cc1ccc2c(c1)[C@]1(C)CCC(=O)[C@H](NC(=O)CCCCN(C)C)[C@@H]1O2.Cl`: the inhibition in vivo at 100 mg/kg in the data set with Cavia porcellus [1] is more than 80%. In the data set with Cavia porcellus [2], the median effective dose (ED50) came out at 71 mg/kg.
Take `Cc1ccc2c(c1)[C@]1(C)CCC(=O)[C@H](NC(=O)CN3CCCC3)[C@@H]1O2`: the inhibition in vivo at 100 mg/kg in the data set with Cavia porcellus [1] was determined as 17%.
On the same count and under the same terms, the same measure for `Cc1ccc2c(c1)[C@]1(C)CCC(=O)[C@H](NC(=O)CCOCCN(C)C)[C@@H]1O2`: 37%; for `Cc1ccc2c(c1)[C@]1(C)CCC(=O)[C@H](NC(=O)CCCCCN(C)C)[C@@H]1O2`: 25%; for `Cc1ccc2c(c1)[C@]1(C)CCC(=O)[C@H](N)[C@@H]1O2`: 33%.
On the same count and under the same terms, the same measure for `Cc1ccc2c(c1)[C@]1(C)CCC(=O)[C@H](NC(=O)CCN3CCN(Cc4ccccc4)CC3)[C@@H]1O2`: 33%.
Turning to `COc1ccc2c3c1O[C@H]1[C@@H](O)C=C[C@H]4[C@@H](C2)N(C)CC[C@@]341` [CODEINE], the inhibition in vivo at 100 mg/kg with Cavia porcellus [1] is more than 80%. Moreover, the ED50 with Cavia porcellus [2] was determined as 38.5 mg/kg.
As for `Cc1ccc2c(c1)[C@]1(C)C=C(NC(=O)CCN(C)C)C(=O)C[C@@H]1O2`, the inhibition in vivo at 100 mg/kg in the data set with Cavia porcellus [1] was 58%.
Same read-out and setting: the same measure for `Cc1ccc2c(c1)[C@]1(C)C=C(NC(=O)Cn3cccc3)C(=O)C[C@@H]1O2`: 42%; for `Cc1ccc2c(c1)[C@]1(C)CCC[C@H](NC(=O)CCN3CCN(C)CC3)[C@@H]1O2`: 46%.
The same measure, in the same setting: the same measure for `Cc1ccc2c(c1)[C@]1(C)CCC(=O)[C@H](NC(=O)OCCN3CCN(C)CC3)[C@@H]1O2`: 33%; for `Cc1ccc2c(c1)[C@]1(C)CCC3(OCCO3)[C@H](NC(=O)CCN3CCN(C)CC3)[C@@H]1O2`: 11%; for `Cc1ccc2c(c1)[C@]1(C)C=C(NC(=O)CN3CCCCC3)C(=O)C[C@@H]1O2`: 17%.
Same read-out and setting: with `Cc1ccc2c(c1)[C@]1(C)CCC(=O)[C@H](NC(=O)CCCN3CCN(C)CC3)[C@@H]1O2` the figure was 72%; with `Cc1ccc2c(c1)[C@]1(C)CCC(=O)[C@H](NC(=O)CCCN(C)C)[C@@H]1O2`, 67%; with `Cc1ccc2c(c1)[C@]1(C)C=C(NC(=O)CN3CCOCC3)C(O)C[C@@H]1O2` (stereo partly drawn), 29%.
For `Cc1ccc2c(c1)[C@]1(C)CCC(=O)[C@H](NC(=O)CN3CCN(C)CC3)[C@@H]1O2`, in the data set on Cavia porcellus [1], the inhibition in vivo at 100 mg/kg was 43%.
Still for that read-out and setting: the same measure for `CCN1CCN(CCC(=O)N[C@H]2C(=O)CC[C@@]3(C)c4cc(C)ccc4O[C@@H]23)CC1`: 8%.
Same read-out and setting: with `Cc1ccc2c(c1)[C@]1(C)CCC(=O)[C@H](NC(=O)CCN3CCNCC3)[C@@H]1O2` the figure was 75%; with `Cc1ccc2c(c1)[C@]1(C)CCC(=O)[C@H](NC(=O)CCN(C)C)[C@@H]1O2`, 79%.
As for `Cc1ccc2c(c1)[C@]1(C)CCC(O)[C@H](NCCCN3CCN(C)CC3)[C@@H]1O2` (stereo partly drawn), the inhibition in vivo at 100 mg/kg with Cavia porcellus [1] was 62%.
The same measure, in the same setting: with `CC(=O)N[C@H]1C(=O)CC[C@@]2(C)c3cc(C)ccc3O[C@@H]12` the figure was 25%.
Same read-out and setting: the same measure for `Cc1ccc2c(c1)[C@]1(C)CCC(=O)[C@H](NC(=O)CCN3CCOCC3)[C@@H]1O2`: 39%; for `CC(=O)N1CCN(CCC(=O)N[C@H]2C(=O)CC[C@@]3(C)c4cc(C)ccc4O[C@@H]23)CC1`: 33%; for `Cc1ccc2c(c1)[C@]1(C)CC/C(=N\NC(N)=O)[C@H](NC(=O)CCN3CCN(C)CC3)[C@@H]1O2`: 25%.
Consider `CCOC(=O)N1CCN(CCC(=O)N[C@H]2C(=O)CC[C@@]3(C)c4cc(C)ccc4O[C@@H]23)CC1`, for which the inhibition in vivo at 100 mg/kg with Cavia porcellus [1] turned out to be 33%.
On the same count and under the same terms, with `Cc1ccc2c(c1)[C@]1(C)C=C(NC(=O)CN(C)C)C(=O)C[C@@H]1O2` the figure was 33%.
For the compound `Cc1cc([N+](=O)[O-])c2c(c1)[C@]1(C)CCC(=O)[C@H](NC(=O)CCN3CCN(C)CC3)[C@@H]1O2`, in the data set on Cavia porcellus [1], the inhibition in vivo at 100 mg/kg was more than 80%. The ED50 in the data set with Cavia porcellus [2] was 34 mg/kg.
On to `Cc1ccc2c(c1)[C@]1(C)C=C(NC(=O)CN3CCOCC3)C(=O)C[C@@H]1O2`, for which the inhibition in vivo at 100 mg/kg with Cavia porcellus [1] was found to be 31%.
On the same count and under the same terms, the same measure for `CCN(CC(=O)N[C@H]1C(=O)CC[C@@]2(C)c3cc(C)ccc3O[C@@H]12)Cc1ccccc1`: 9%.
Still for that read-out and setting: the same measure for `Cc1ccc2c(c1)[C@]1(C)CCC(O)=C(C(=O)NCCN3CCN(C)CC3)[C@@H]1O2`: 61%.
The same measure, in the same setting: with `Cc1ccc2c(c1)[C@]1(C)CCC(O)[C@H](NC(=O)CCN3CCN(C)CC3)[C@@H]1O2` (stereo partly drawn) the figure was 12%; with `Cc1ccc2c(c1)[C@]1(C)CC/C(=N\O)[C@H](NC(=O)CCN3CCN(C)CC3)[C@@H]1O2`, 55%; with `Cc1ccc2c(c1)[C@]1(C)CCC(=O)[C@H](NC(=O)CCN3CCCCC3)[C@@H]1O2`, 46%.
Take `CC(=O)c1cc(C)cc2c1O[C@H]1[C@@H](NC(=O)CCN3CCN(C)CC3)C(=O)CC[C@@]21C`: in the data set on Cavia porcellus [1], the inhibition in vivo at 100 mg/kg was 42%.
On to `Cc1ccc2c(c1)[C@]1(C)CCC(=O)[C@H](NC(=O)CCN3CCCC3)[C@@H]1O2`, for which the inhibition in vivo at 100 mg/kg in the data set on Cavia porcellus [1] worked out at 44%.
With `CC(=O)c1cc(C)cc(C2(C)C=C(NC(=O)CCN3CCN(C)CC3)C(=O)CC2)c1O` (stereo not drawn), in the data set with Cavia porcellus [1], the inhibition in vivo at 100 mg/kg came out at 22%.
Consider `Cc1ccc2c(c1)[C@]1(C)CCC(=O)[C@H](NC(=O)CCN3CCN(C)CC3)[C@@H]1O2.Cl`, for which the inhibition in vivo at 100 mg/kg in the data set on Cavia porcellus [1] is more than 80%. Further, the ED50 in the data set on Cavia porcellus [2] stood at 32.5 mg/kg. Also, the Activity result with Cavia porcellus [3], in the data set on Cavia porcellus [4] and in the data set with Cavia porcellus [5] was “Non-toxic” in each case.
Regarding `Cc1ccc2c(c1)[C@]1(C)CCC(=O)[C@H](NC(=O)CCN(C)CCN(C)C)[C@@H]1O2`, in the data set with Cavia porcellus [1], the inhibition in vivo at 100 mg/kg stood at 50%.
Same read-out and setting: with `Cc1ccc2c(c1)[C@]1(C)CC(NC(=O)CCN3CCN(C)CC3)C(=O)C[C@@H]1O2` (stereo partly drawn) the figure was 12.5%; with `Cc1ccc2c(c1)[C@]1(C)C=C(C(=O)NCCN3CCN(C)CC3)C(=O)C[C@@H]1O2`, 62.5%; with `Cc1ccc2c(c1)[C@]1(C)CCC3(SCCS3)[C@H](NC(=O)CCN3CCN(C)CC3)[C@@H]1O2`, 46%.
For the compound `Cc1ccc2c(c1)[C@]1(C)C=C(NC(=O)CCN3CCN(C)CC3)C(=O)C[C@@H]1O2`, in the data set with Cavia porcellus [1], the inhibition in vivo at 100 mg/kg was found to be 25%.
Still for that read-out and setting: the same measure for `Cc1ccc2c(c1)[C@]1(C)CCC(=O)[C@H](NC(=O)CCN3CCN(CCO)CC3)[C@@H]1O2`: 17%.
For `Cc1ccc2c(c1)[C@]1(C)CCC(=O)[C@H](NC(=O)CCN3CCN(c4ccccc4)CC3)[C@@H]1O2`, the inhibition in vivo at 100 mg/kg in the data set on Cavia porcellus [1] came to 54%.
Still for that read-out and setting: the same measure for `CCN(CC)CCC(=O)N[C@H]1C(=O)CC[C@@]2(C)c3cc(C)ccc3O[C@@H]12`: 33%.
